Four compounds from ChEMBL document CHEMBL1137286, “Vialinin B, a novel potent inhibitor of TNF-alpha production, isolated from an edible mushroom, Thelephora vialis” (Bioorg Med Chem Lett, 2006) can be followed below.

pIC50: −log10 of the molar value.

This experiment concerns RBL-2H3. The experiment is described as follows: Inhibition of DNP7-BSA antigen-induced TNFalpha release in rat RBL-2H3 cells. In kind it is functional, cell-based.
Take `Oc1ccc(-c2c(O)c(O)c3c(oc4cc(O)c(O)cc43)c2O)cc1` [CYCLOLEUCOMELONE]: the pIC50 (commonly −log10 of the IC50, conventionally taken in molar units) is 5.46. `O=C(Cc1ccccc1)Oc1c(-c2ccc(O)cc2)c(OC(=O)Cc2ccccc2)c2oc3cc(O)c(O)cc3c2c1OC(=O)Cc1ccccc1` [GANBAJUNIN B]: the pIC50 was 5.30.

`O=C(Cc1ccccc1)Oc1c(-c2ccc(O)cc2)c(O)c2oc3cc(O)c(O)cc3c2c1OC(=O)Cc1ccccc1` [VIALININ B] gave a negative-log IC50 (pIC50) of 10.70. With `C=CC[C@@H]1/C=C(\C)C[C@H](C)C[C@H](OC)[C@H]2O[C@@](O)(C(=O)C(=O)N3CCCC[C@H]3C(=O)O[C@H](/C(C)=C/[C@@H]3CC[C@@H](O)[C@H](OC)C3)[C@H](C)[C@@H](O)CC1=O)[C@H](C)C[C@@H]2OC` [TACROLIMUS ANHYDROUS] the figure was 9.60.
